From a melting point compilation (Tetko et al.) come the findings set out here.

As for `O=C(O)c1cc(O)c(O)c(O)c1`, the melting point was 253 °C.

With `CC1C(=O)CCC2C1(C)CCC1C2(C)CCC2(C)C3CC(C)(C)CCC3(C)CCC12C` (stereo unspecified), the melting point was 263 °C.

`Clc1c(Cl)c(Cl)c2c(Cl)c(Cl)c(Cl)c(Cl)c2c1Cl` displayed a melting point of 198 °C.

In turn, `O=C(O)C(F)(F)C(F)(F)C(F)(F)C(F)(F)C(F)(F)F` displayed a melting point of 10 °C.

For the molecule `Cc1cc(C(F)(F)F)n2nc(-c3ccccc3)cc2n1`, the melting point is 174 °C.

`CSc1ccc(C#N)cc1` yielded a melting point of 62 °C.

As to `Brc1ccc(-c2c(Br)c(Br)c(Br)c(Br)c2Br)c(Br)c1Br`, the melting point worked out at 225 °C.

`OC1CC(O)C(O)C(O)C1O` (stereo unspecified) registered a melting point of 236 °C.

As for `FC(F)(Cl)CBr`, the melting point was -76 °C.

In the case of `CCOC(=O)C1C(c2ccccc2O)C(C(=O)OCC)C(O)(C(F)(F)F)NC1(O)C(F)(F)F` (stereo unspecified), the melting point was determined as 91 °C.

Turning to `CCc1ccccc1Cc1ccccc1`, the melting point was -11 °C.

Turning to `O=C(O)C1CCOCC1`, the melting point lay in the range of 87 to 89 °C.

Take `CCCCCCNC(=O)C=Cc1ccc(O)c(O)c1`: the melting point was 142 °C.

Turning to `O=S1(=O)c2cccc3cccc(c23)N1CCCCCl`, the melting point fell in the range of 38 to 40 °C.

`Cc1cc(CCl)c(CCl)cc1C` registered a melting point of 104 to 106 °C.

For the molecule `COC(=O)C=Cc1ccc([N+](=O)[O-])c(C=CC(=O)OC)c1`, the melting point came to 200 °C.

With `CC(C)[C@@H]1CC[C@H](C)C[C@@H]1OC(=O)c1cccc(C(=O)O)n1`, the melting point is 120 °C.

`O=C(O)CCc1ccc(Cl)c(Cl)c1`: the melting point lay in the range of 97 to 99 °C.

The molecule `O=c1[nH]oc2ccccc12` gave a melting point of 139 °C.

The molecule `NNc1nncc2ccccc12` came in with a melting point of 172 °C.

`CNC(=O)Oc1ccc(SC)c(C)c1` came in with a melting point of 118 °C.

As to `Cn1nc(-c2ccccc2)cc1C(=O)O`, the melting point was in the range of 186 to 187 °C.

The molecule `CC(C)(C)OC(=O)n1cccc1C=O` returned a melting point of 51 °C.

`Cc1nc(N)nc2c1c(=O)n(-c1ccccc1)c1ccccc21`: the melting point turned out to be 233 °C.

The molecule `CC1(C)OC(=O)C(=NNc2ccccc2[N+](=O)[O-])C(=O)O1` yielded a melting point of 165 °C.

The molecule `C=CC(=O)NC(O)C(=O)O` (stereo unspecified) had a melting point of 123 to 127 °C.

Molecule `O=C1CC(c2ccccc2)Oc2cc(O)ccc21` (stereo unspecified) gave a melting point of 188 °C.

`C=C(C)c1ccc(C)cc1` gave a melting point of -20 °C.

Molecule `Nc1n[nH]c(N)c1Cc1ccccc1Cl` displayed a melting point of 120 to 121 °C.

As to `c1coc(CNc2ncnc3[nH]cnc23)c1`, the melting point lay within 269 to 271 °C.

Take `Cc1cc(C)n(C(N)=O)n1`: the melting point fell in the range of 113 to 115 °C.

`OCc1cc(C(F)(F)F)ccc1Cl` came in with a melting point of 59 °C.

For the molecule `Cc1cc(C)c(N)c(I)c1`, the melting point was 65 °C.

Turning to `Cc1ccc(C)[nH]1`, the melting point came to 7.7 °C.

On to `COc1ccc2c(c1)CCCN2`, for which the melting point amounted to 42.5 °C.

Molecule `O=C(O)c1cc(F)nc(F)c1F` gave a melting point of 125 to 127 °C.

Molecule `Brc1cccc2ncccc12` came in with a melting point of 46 °C.

`O=[N+]([O-])c1cccc(-c2nnc3n2CN(c2cccc([N+](=O)[O-])c2)CS3)c1` had a melting point of 240 °C.

`O=C(Cl)c1cccc(S(=O)(=O)Cl)c1` yielded a melting point of 18 to 20 °C.

With `O=c1[nH]cc(C(F)(F)F)cc1[N+](=O)[O-]`, the melting point lay within 189 to 190 °C.

Molecule `S=C=Nc1ccc(OCc2ccccc2)cc1` showed a melting point of 64 °C.

The molecule `COc1ccc(F)cc1C#N` displayed a melting point of 117 °C.

As to `Brc1cc(Br)c(Oc2ccc(Br)c(Br)c2)c(Br)c1`, the melting point fell in the range of 86 to 87 °C.

As to `Nc1ncc(Cl)cn1`, the melting point was 235 °C.

The molecule `COc1cc([N+](=O)[O-])ccc1S(=O)(=O)Cl` yielded a melting point of 97 °C.

`O=[N+]([O-])c1ccc(Cc2ccncc2)cc1` registered a melting point of 71 °C.

For `CCOC(=O)c1c(N)sc2c1CCN(Cc1ccccc1)C2`, the melting point came out at 112 °C.

With `CC(C)COC(N)=O`, the melting point is 67 °C.

`CC(C)(C)OC(=O)N1CC(O)C1` returned a melting point of 40 °C.

Molecule `NC(=S)N1CCOCC1` yielded a melting point of 153 to 156 °C.

In the case of `O=C(Cc1ccccc1)NC(CO)c1ccccc1` (stereo unspecified), the melting point came out at 140 °C.

Molecule `CCC1(N2CCCCC2)C(=O)NC(=O)NC1=O` yielded a melting point of 215 °C.

`COc1ccc(C2=CCC3(C)C(CCC4C3CCC3(C)C(OC(C)=O)CCC43)C2)cc1` (stereo unspecified) displayed a melting point of 177 to 180 °C.

On to `CCN(CC)C(=O)c1ccccc1C(=O)N(CC)CC`, for which the melting point turned out to be 36 °C.

Molecule `CCCCCCCC=O` gave a melting point of 12.5 °C.

Molecule `CCCNC(=O)NCCC` gave a melting point of 105 °C.

In turn, `O=C1CCC(c2ccc(NC(=O)c3ccc(F)cc3)cc2)=NN1` had a melting point of 285 to 287 °C.

In turn, `CC12CCC(O)CC1=CCC1C2CCC2(C)C1CCC2(O)C#CCl` (stereo unspecified) registered a melting point of 175 to 177 °C.

For `CC(O)[C@@]1(O)CC[C@H]2[C@@H]3CCC4(C)C[C@H](O)CC[C@]4(C)[C@H]3CC[C@@]21C` (stereo partly specified), the melting point is 254 to 255 °C.

On to `O=C(O)c1cnccn1`, for which the melting point was in the range of 222 to 225 °C.

Consider `O=C(NCCc1ncc(C(F)(F)F)cc1Cl)c1ccccc1C(F)(F)F`, for which the melting point is 118 °C.

The molecule `O=C(c1ccccc1)c1ccc(C(F)(F)F)c(F)c1` registered a melting point of 66 °C.

In turn, `Cc1ccc(Cl)c(CO)c1F` registered a melting point of 57 °C.

As for `COc1cc2c(Cc3ccccc3)cncc2cc1O`, the melting point was 207 °C.

As for `CCCF`, the melting point is -159 °C.

Take `CC(C)(O)C#CC#CC(C)(C)O`: the melting point lay within 132 to 134 °C.

Molecule `CC(C)(C)OC(=O)Nc1cc(O)cc(C(=O)O)c1` showed a melting point of 150 to 151 °C.

Take `O[C@H]1CCC[C@@H]1O`: the melting point was 55 °C.

`c1ccnnc1` showed a melting point of -8 °C.

`CC1=NCCNc2c1c(=O)n(-c1ccccc1)c1ccccc21`: the melting point was 221 °C.

With `CN(C)c1nc(N(C)C)nc(N(C)C)n1`, the melting point was 173 °C.

Consider `Cc1ccc(-c2ccc(C=C3N=C(c4ccccc4)OC3=O)o2)cc1`, for which the melting point was in the range of 149 to 150 °C.

Turning to `Nc1nccc(-c2cc(-c3cccc(C(F)(F)F)c3)no2)n1`, the melting point lay in the range of 184 to 185 °C.

The molecule `CC1(O)Cc2cccc(Cl)c21` (stereo unspecified) had a melting point of 94 °C.

Molecule `CCCOC(=O)c1ccccc1` showed a melting point of -51.6 °C.

`CCCCCCO` displayed a melting point of -44.6 °C.

With `N#CC(C#N)=Nc1ccccc1`, the melting point was 86 to 87 °C.

The molecule `CC(=O)OCC(=O)C1(O)CCC2C3CCC4=CC(=O)CCC4(C)C3C(=O)CC21C` (stereo unspecified) displayed a melting point of 222 °C.

For `Cc1cc(C)c(C(C)C)cc1C`, the melting point amounted to 21 °C.

`Nc1cc(C(F)(F)F)c(Br)cc1F` showed a melting point of 36 °C.

Take `CCOC(=O)c1nn(-c2ccc(C)cc2)c(C)c1C(=O)c1noc(-c2ccc3ccccc3c2)c1S(=O)(=O)c1ccccc1`: the melting point was found to be 172 °C.

As a reminder, the melting point is the temperature, or range, at which the solid turns liquid.
